How the values were obtained:
human mAChR M1 [1] = biological target: T1, human mAChR M1 (Homo sapiens, UniProt P11229); experiment: mAChR M1 cell-based functional assay (calcium mobilization), PAM mode: increase in the EC20 acetylcholine response
T1 sequence (P11229 1-460): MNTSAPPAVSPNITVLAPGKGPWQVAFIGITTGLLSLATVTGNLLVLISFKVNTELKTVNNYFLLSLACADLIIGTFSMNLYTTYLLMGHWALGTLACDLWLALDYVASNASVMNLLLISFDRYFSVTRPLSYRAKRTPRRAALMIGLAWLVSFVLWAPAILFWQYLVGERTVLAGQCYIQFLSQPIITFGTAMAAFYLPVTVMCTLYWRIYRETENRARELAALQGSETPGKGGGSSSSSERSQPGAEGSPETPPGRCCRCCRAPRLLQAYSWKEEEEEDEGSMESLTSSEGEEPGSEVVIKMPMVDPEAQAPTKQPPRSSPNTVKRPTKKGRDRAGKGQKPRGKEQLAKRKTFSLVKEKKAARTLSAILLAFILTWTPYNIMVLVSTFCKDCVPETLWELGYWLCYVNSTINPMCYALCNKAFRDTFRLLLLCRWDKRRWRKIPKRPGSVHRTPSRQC
Summary of the method: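 PAM readout is the concentration-dependent rise in the EC20 acetylcholine calcium signal, fitted to a four-parameter logistic (EC50, Emax). Compounds were preincubated from 4 s before ACh at 144 s (EC20) and 230 s (EC80). hM1-expressing CHO-K1 cells loaded with Fluo-4, FDSS ratio read.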

human mAChR M1 [2] = biological target: T1, human mAChR M1; experiment: mAChR M1 cell-based functional assay (calcium mobilization), agonist mode: compound alone, Emax relative to acetylcholine maximum; details: for EC50 / Agonist Activity Human M1 EC50: human mAChR M1; for Emax: relative to the maximum for acetylcholine
Summary of the method: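 Agonist activity is the concentration-dependent rise in intracellular calcium (Fluo-4, 1 Hz read) after compound addition, measured before any acetylcholine was added, in stable hM1 CHO-K1 cells. Curves were 11-point, 1:3 dilutions fitted by four-parameter logistic. Emax is given as a fraction of maximal acetylcholine response.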

| EC50 (human mAChR M1 [1]) | Emax (human mAChR M1 [1]) | EC50 (human mAChR M1 [2]) | Emax (human mAChR M1 [2]) | Agonist Activity Human M1 EC50 (human mAChR M1 [2]) | SMILES |
| --- | --- | --- | --- | --- | --- |
| 0.745 µM | 76% | 9.56 µM | 22% | – | [2H]C([2H])([2H])c1cc2c(-c3cc(F)c(CN4C(=O)c5cccnc5C4([2H])[2H])c(F)c3)cccn2n1 [Compound 236, 6-(2,6-Difluoro-4-(2-(methyl-d3)pyrazolo[1,5-a]pyridin-4-yl)benzyl)-6,7-dihydro-5H-pyrrolo[3,4-b]pyridin-5-one-7,7-d2] |
| 2 µM | 82% | > 10 µM | 3% | – | [2H]C1([2H])c2ncccc2C(=O)N1Cc1ccc(-c2cnc3nn(C)cc3c2)cc1C [Compound 34, 6-(2-methyl-4-(2-methyl-2H-pyrazolo[3,4-b]pyridin-5-yl)benzyl)-6,7-dihydro-5H-pyrrolo[3,4-b]pyridin-5-one-7,7-d2] |
| 0.266 µM | 88% | 9.83 µM | 11% | – | [2H]C1([2H])c2ncccc2C(=O)N1Cc1c(F)cc(-c2ccc3nn(C)cc3c2)cc1C1CC1 [Compound 193, 6-(2-cyclopropyl-6-fluoro-4-(2-methyl-2H-indazol-5-yl)benzyl)-6,7-dihydro-5H-pyrrolo[3,4-b]pyridin-5-one-7,7-d2] |
| 0.335 µM | 81% | 9.7 µM | 38% | – | [2H]C1([2H])c2ncccc2C(=O)N1Cc1c(F)cc(-c2ccc(Cl)c3nn(C)cc23)cc1C1CC1 [Compound 206, 6-(4-(7-chloro-2-methyl-2H-indazol-4-yl)-2-cyclopropyl-6-fluorobenzyl)-6,7-dihydro-5H-pyrrolo[3,4-b]pyridin-5-one-7,7-d2] |
| 0.977 µM | 40% | – | 2% | Inactive | [2H]C1([2H])c2ncccc2C(=O)N1Cc1c(F)cc(-c2ccn3ccnc3c2)cc1F [Compound 5, 6-(2,6-difluoro-4-(imidazo[1,2-a]pyridin-7-yl)benzyl)-6,7-dihydro-5H-pyrrolo[3,4-b]pyridin-5-one-7,7-d2] |
| 1.48 µM | 86% | – | 6% | Inactive | [2H]C1([2H])c2ncccc2C(=O)N1Cc1c(F)cc(-c2cnc3nn(C)cc3c2)cc1Cl [Compound 168, 6-(2-chloro-6-fluoro-4-(2-methyl-2H-pyrazolo[3,4-b]pyridin-5-yl)benzyl)-6,7-dihydro-5H-pyrrolo[3,4-b]pyridin-5-one-7,7-d2] |
| 0.382 µM | 80% | – | 6% | Inactive | [2H]C1([2H])c2ncccc2C(=O)N1Cc1c(C)cc(-c2ccc(F)c3nn(C([2H])([2H])[2H])cc23)cc1F [Compound 158, 6-(2-fluoro-4-(7-fluoro-2-(methyl-d3)-2H-indazol-4-yl)-6-methylbenzyl)-6,7-dihydro-5H-pyrrolo[3,4-b]pyridin-5-one-7,7-d2] |

Continued, molecule first:

| SMILES | EC50 (human mAChR M1 [1]) | Emax (human mAChR M1 [1]) | EC50 (human mAChR M1 [2]) | Emax (human mAChR M1 [2]) | Agonist Activity Human M1 EC50 (human mAChR M1 [2]) |
| --- | --- | --- | --- | --- | --- |
| [2H]C1([2H])c2ncccc2C(=O)N1Cc1ccc(-c2cc3cn(C)nc3cc2F)cc1F [Compound 24, 6-(2-fluoro-4-(6-fluoro-2-methyl-2H-indazol-5-yl)benzyl)-6,7-dihydro-5H-pyrrolo[3,4-b]pyridin-5-one-7,7-d2] | 3.6 µM | 69% | – | 2% | Inactive |
| [2H]C1([2H])c2ncccc2C(=O)N1Cc1c(F)cc(-c2ccc(C(F)(F)F)c3nn(C)cc23)cc1F [Compound 41, 6-(2,6-difluoro-4-(2-methyl-7-(trifluoromethyl)-2H-indazol-4-yl)benzyl)-6,7-dihydro-5H-pyrrolo[3,4-b]pyridin-5-one-7,7-d2] | 0.604 µM | 65% | – | 2% | Inactive |
| [2H]C1([2H])c2ncccc2C(=O)N1Cc1ccc(-c2ccc(C)c3nn(C)cc23)cc1C [Compound 30, 6-(4-(2,7-dimethyl-2H-indazol-4-yl)-2-methylbenzyl)-6,7-dihydro-5H-pyrrolo[3,4-b]pyridin-5-one-7,7-d2] | 1.09 µM | 79% | > 10 µM | 22% | – |
| [2H]C1([2H])c2ncccc2C(=O)N1Cc1ccc(-c2cccc3ccnn23)cc1 [Compound 241, 6-(4-(pyrazolo[1,5-a]pyridin-7-yl)benzyl)-6,7-dihydro-5H-pyrrolo[3,4-b]pyridin-5-one-7,7-d2] | > 10 µM | 41% | – | 3% | Inactive |
| [2H]C1([2H])c2ncc(O)cc2C(=O)N1Cc1c(F)cc(-c2cccc3nn(C)cc23)cc1F [Compound 62, 6-(2,6-Difluoro-4-(2-methyl-2H-indazol-4-yl)benzyl)-3-hydroxy-6,7-dihydro-5H-pyrrolo[3,4-b]pyridin-5-one-7,7-d2] | 0.108 µM | 67% | 4.34 µM | 57% | – |
| [2H]C1([2H])c2ncccc2C(=O)N1Cc1c(Cl)cc(-c2cccc3nn(C)cc23)cc1Cl [Compound 227, 6-(2,6-dichloro-4-(2-methyl-2H-indazol-4-yl)benzyl)-6,7-dihydro-5H-pyrrolo[3,4-b]pyridin-5-one-7,7-d2] | 0.9 µM | 63% | – | 1% | Inactive |
| [2H]C1([2H])c2ncccc2C(=O)N1Cc1c(F)cc(-c2ccc(OC3CCOC3)c3nn(C)cc23)cc1F (stereo not shown) [Compound 127, 6-(2,6-difluoro-4-(2-methyl-7-((tetrahydrofuran-3-yl)oxy)-2H-indazol-4-yl)benzyl)-6,7-dihydro-5H-pyrrolo[3,4-b]pyridin-5-one-7,7-d2] | 0.486 µM | 65% | 8.4 µM | 21% | – |
| [2H]C([2H])([2H])Oc1cc(-c2cc(F)c(CN3C(=O)c4cccnc4C3([2H])[2H])c(F)c2)c2cnn(C([2H])([2H])[2H])c2c1 [Compound 88, 6-(2,6-difluoro-4-(6-(methoxy-d3)-1-(methyl-d3)-1H-indazol-4-yl)benzyl)-6,7-dihydro-5H-pyrrolo[3,4-b]pyridin-5-one-7,7-d2] | 2.7 µM | 37% | – | 2% | Inactive |
| [2H]C1([2H])c2ncccc2C(=O)N1Cc1ccc(-c2ccc(F)c3nn(C([2H])([2H])[2H])cc23)cc1F [Compound 54, 6-(2-fluoro-4-(7-fluoro-2-(methyl-d3)-2H-indazol-4-yl)benzyl)-6,7-dihydro-5H-pyrrolo[3,4-b]pyridin-5-one-7,7-d2] | 0.382 µM | 82% | > 10 µM | 5% | – |
| [2H]C1([2H])c2ncccc2C(=O)N1Cc1c(F)cc(-c2cc(F)cc3nn(C)cc23)cc1F [Compound 59, 6-(2,6-difluoro-4-(6-fluoro-2-methyl-2H-indazol-4-yl)benzyl)-6,7-dihydro-5H-pyrrolo[3,4-b]pyridin-5-one-7,7-d2] | 0.222 µM | 59% | – | 2% | Inactive |
| [2H]C1([2H])c2ncccc2C(=O)N1Cc1c(F)cc(-c2cn(C)c(=O)c3nn(C([2H])([2H])[2H])cc23)cc1F [Compound 91, 4-(3,5-difluoro-4-((5-oxo-5,7-dihydro-6H-pyrrolo[3,4-b]pyridin-6-yl-7,7-d2)methyl)phenyl)-6-methyl-2-(methyl-d3)-2,6-dihydro-7H-pyrazolo[3,4-c]pyridin-7-one] | 0.718 µM | 84% | 7.74 µM | 22% | – |
| [2H]C1([2H])c2ncccc2C(=O)N1Cc1c(F)cc(-c2cccc3nn(C)cc23)cc1C1CC1 [Compound 192, 6-(2-cyclopropyl-6-fluoro-4-(2-methyl-2H-indazol-4-yl)benzyl)-6,7-dihydro-5H-pyrrolo[3,4-b]pyridin-5-one-7,7-d2] | 0.137 µM | 84% | 5.96 µM | 44% | – |
| [2H]C1([2H])c2ncccc2C(=O)N1Cc1c(Cl)cc(-c2cccc3nn(C([2H])([2H])[2H])cc23)cc1Cl [Compound 228, 6-(2,6-dichloro-4-(2-(methyl--d3)-2H-indazol-4-yl)benzyl)-6,7-dihydro-5H-pyrrolo[3,4-b]pyridin-5-one-7,7-d2] | 0.38 µM | 60% | – | 1% | Inactive |
| [2H]C1([2H])c2ncccc2C(=O)N1Cc1c(F)cc(-c2ccc(O)c3nn(C)cc23)cc1F [Compound 130, 6-(2,6-Difluoro-4-(7-hydroxy-2-methyl-2H-indazol-4-yl)benzyl)-6,7-dihydro-5H-pyrrolo[3,4-b]pyridin-5-one-7,7-d2] | 0.123 µM | 82% | 4.56 µM | 52% | – |
| [2H]C1([2H])c2ncccc2C(=O)N1Cc1ccc(-c2cccc3nn(C)cc23)cc1C(C)C [Compound 233, 6-(2-isopropyl-4-(2-methyl-2H-indazol-4-yl)benzyl)-6,7-dihydro-5H-pyrrolo[3,4-b]pyridin-5-one-7,7-d2] | ≥ 10 µM | 43% | – | 1% | Inactive |

— patent US20240228489A1, “POSITIVE ALLOSTERIC MODULATORS OF THE MUSCARINIC ACETYLCHOLINE RECEPTOR M1” (Vanderbilt University, priority 2021, published 2024)
